Publication PMC5503199 (Molecular microbiology, 2009)

Target: T1, BetX with CbcWV (Pseudomonas aeruginosa, UniProt Q9HZ04)
T1 sequence (Q9HZ04 26-285): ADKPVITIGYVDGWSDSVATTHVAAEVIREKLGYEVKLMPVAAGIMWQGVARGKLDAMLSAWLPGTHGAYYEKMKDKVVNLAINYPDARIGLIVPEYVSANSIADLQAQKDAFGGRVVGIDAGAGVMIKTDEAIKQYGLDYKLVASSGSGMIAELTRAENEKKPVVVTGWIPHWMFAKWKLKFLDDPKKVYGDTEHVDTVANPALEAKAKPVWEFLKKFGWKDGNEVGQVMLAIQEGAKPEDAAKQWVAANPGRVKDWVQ
T1 sequence (Q9HTI7 1-279 partner): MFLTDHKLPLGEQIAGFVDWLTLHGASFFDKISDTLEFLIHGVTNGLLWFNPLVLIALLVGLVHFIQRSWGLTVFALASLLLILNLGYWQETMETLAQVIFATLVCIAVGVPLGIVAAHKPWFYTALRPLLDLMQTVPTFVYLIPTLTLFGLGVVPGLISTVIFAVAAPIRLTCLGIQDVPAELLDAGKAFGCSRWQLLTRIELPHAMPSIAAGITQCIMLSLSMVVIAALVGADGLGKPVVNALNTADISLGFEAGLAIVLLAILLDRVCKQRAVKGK
T1 sequence (Q9HTI8 1-392 partner): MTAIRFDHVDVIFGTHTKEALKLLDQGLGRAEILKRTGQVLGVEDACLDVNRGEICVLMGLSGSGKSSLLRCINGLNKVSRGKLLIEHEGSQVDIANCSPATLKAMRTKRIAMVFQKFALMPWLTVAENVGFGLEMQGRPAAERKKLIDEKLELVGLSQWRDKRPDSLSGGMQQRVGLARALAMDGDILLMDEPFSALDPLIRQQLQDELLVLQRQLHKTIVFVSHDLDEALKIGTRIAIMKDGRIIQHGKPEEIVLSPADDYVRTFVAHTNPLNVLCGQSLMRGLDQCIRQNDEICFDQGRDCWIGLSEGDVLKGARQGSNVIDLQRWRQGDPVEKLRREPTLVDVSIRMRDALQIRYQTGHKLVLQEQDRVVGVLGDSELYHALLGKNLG
Test: Uptake kinetics, MKH13
Conditions: MKH13, pNcbcWV + pTPA3236, SBP BetX, mean (SE), n = 4

C[N+](C)(C)CC(=O)O [Betaine, glycine betaine]
maximal rate of uptake (Vmax): 4.8 (0.18) nmol min^−1 (mg protein)^−1
maximal rate of uptake (Vmax) (listed as betaine): 4.8 nmol min^−1 (mg protein)^−1
